16 compounds from patent US20240199644A1, “Fused Ring Derivatives Useful as KRAS G12D Inhibitors” (JACOBIO PHARMACEUTICALS CO., LTD., priority 2021, published 2024) can be followed below.

In general, IC50 refers to the concentration needed to halve the response being measured.

Sequence of GppNp-loaded HIS-KRAS(G12D, aa 1-169) / cRAF RBD (P01116 other isoform, or with tags, fused parts or gaps G12D): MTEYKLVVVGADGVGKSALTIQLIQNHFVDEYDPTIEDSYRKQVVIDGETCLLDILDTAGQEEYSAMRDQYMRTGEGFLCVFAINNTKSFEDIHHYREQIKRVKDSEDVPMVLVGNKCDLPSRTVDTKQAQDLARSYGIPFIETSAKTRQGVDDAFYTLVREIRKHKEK

The target of one experiment is GDP-loaded HIS-KRAS(G12D, aa 1-169) (Homo sapiens (Human), UniProt P01116, G12D). In words: SOS1 catalyzed nucleotide exchange assay. The experiment is classed as biochemical. Particulars: TR-FRET; 1.5 nM GDP-loaded HIS-KRAS(G12D), 0.5 μM SOS1 ExD, 4 hours at 25° C. Here is the method: GDP-loaded HIS-KRAS(G12D, aa 1-169) was pre-incubated with a compound in the presence of 10 nM GDP in a 384-well plate (Greiner) for 15 min, then purified SOS1 ExD(Flag tag, aa 564-1049), BODIPY™ FL GTP (Invitrogen) and MAb(monoclonal antibody) Anti 6HIS-Tb cryptate Gold (Cisbio) were added to the assay wells (Final concentration: 1.5 nM GDP-loaded HIS-KRAS(G12D), 5 nM GDP, 0.5 μM SOS1 ExD, 80 nM BODIPY™ FL GTP, 52.5 ng/mL MAb Anti 6HIS-Tb cryptate Gold) and incubated for 4 hours at 25° C. Wells containing same percent of DMSO served as vehicle control, and wells without KRAS served as low control. TR-FRET signals were read on Tecan Spark multimode microplate reader. The parameters were F486: Excitation 340 nm, Emission 486 nm, Lag time 100 μs, Integration time 200 μs; F515: Excitation 340 nm, Emission 515 nm, Lag time 100 μs, Integration time 200 μs. TR-FRET ratios for each individual wells were calculated by equation: TR-FRET ratio=(Signal F515/Signal F486)*10000. The percent of activation of compounds treated wells were normalizedbetween vehicle control and low control. Then the data were analyzed using a 4-parameter logistic model to calculate ICso values.
Sequence of GDP-loaded HIS-KRAS(G12D, aa 1-169) (P01116 other isoform, or with tags, fused parts or gaps G12D): as above
On the technique in general: TR-FRET usually uses a lanthanide donor and a delayed reading to cut background.
In the case of `Oc1cc(-c2cc3nc(OC[C@@]45CCCN4C[C@H](F)C5)nc4c3c(c2Cl)OC[C@H]2CNCCN42)c2ccccc2c1` [Compound 3], the IC50 is 294 nM.

In turn, `CN(C)CC1(COc2nc3c4c(c(Cl)c(-c5cc(O)cc6ccccc56)cc4n2)OC[C@H]2CNCCN32)CC1` [Compound 2] gave an IC50 of 880 nM.

For the compound `C#Cc1c(F)ccc2cc(O)cc(-c3cc4c5c(nc(OC[C@@]67CCCN6C[C@H](F)C7)nc5c3F)N3C[C@H]5CC[C@H](N5)[C@H]3CO4)c12` [Compound 10], inhibition was half-maximal at 0.452 nM (IC50).

Consider `C#Cc1c(F)ccc2cc(O)cc(-c3cc4c5c(nc(OCC6(CN7CCOCC7)CC6)nc5c3F)N3C[C@H]5CC[C@H](N5)[C@H]3CO4)c12` [Compound 14], for which the half-maximal inhibitory concentration (IC50) was 1.15 nM.

`C#Cc1c(F)ccc2cc(O)cc(-c3nc4c5c(nc(OCC6(CN7CCOCC7)CC6)nc5c3F)N3C[C@H]5CC[C@H](N5)[C@H]3CO4)c12` [Compound 7] yielded an IC50 of 0.659 nM. This IC50 lies about 1.7-fold lower than the previous one.

Take `C#Cc1c(F)ccc2cc(O)cc(-c3nc4c5c(nc(OC[C@@]67CCCN6C[C@H](F)C7)nc5c3F)N3C[C@H]5CC[C@H](N5)[C@H]3CO4)c12` [Compound 6]: the IC50 turned out to be 0.23 nM.

Turning to `C#Cc1c(F)ccc2cc(O)cc(-c3nc4c5c(nc(OC[C@@]67CCCN6C[C@H](F)C7)nc5c3F)N3C[C@@H]5CC[C@@H](N5)[C@H]3CO4)c12` [Compound 9], the IC50 was determined as 81 nM.

Consider `C#Cc1cccc2cc(O)cc(-c3cc4nc(OC[C@@]56CCCN5C[C@H](F)C6)nc5c4c(c3Cl)OC[C@@H]3[C@@H]4CC[C@H](CN53)N4)c12` [Compound 11], for which the half-maximal inhibitory concentration (IC50) was determined as 7.24 nM.

For `C#Cc1c(F)ccc2cc(O)cc(-c3c(Cl)c4c5c(nc(OC[C@@]67CCCN6C[C@H](F)C7)nc5c3F)N3C[C@H]5CC[C@H](N5)[C@H]3CO4)c12` (atropisomer, axis not shown) [Compound 12], the IC50 is 35.8 nM. Compared with the last compound, the IC50 is about 4.9-fold higher.

The compound `CN(C)CC1(COc2nc3c4c(c(Cl)c(-c5cc(O)cc6ccccc56)cc4n2)OC[C@@H]2CNCCN32)CC1` [Compound 1] registered a concentration for half-maximal inhibition (IC50) of 3860 nM.

In turn, `C#Cc1cccc2cc(O)cc(-c3cc4c5c(nc(OCC6(CN7CCOCC7)CC6)nc5c3F)N3C[C@H]5CC[C@H](N5)[C@@H]3CO4)c12` [Compound 4] returned an IC50 of 2.5 nM. This IC50 is about 1500-fold lower than that of the compound before.

Regarding `C#Cc1c(F)ccc2cc(O)cc(-c3c(Cl)c4c5c(nc(OC[C@@]67CCCN6C[C@H](F)C7)nc5c3F)N3C[C@H]5CC[C@H](N5)[C@H]3CO4)c12` (atropisomer, axis not shown) [Compound 13], half-maximal inhibition (IC50) required 0.691 nM.

Regarding `C#Cc1c(F)ccc2cc(O)cc(-c3nc4c5c(nc(OC[C@@]67CCCN6C[C@H](F)C7)nc5c3F)N3C[C@@H]5CC[C@@H](N5)[C@@H]3CO4)c12` [Compound 8], half-maximal inhibition (IC50) was put at 32.6 nM.

Compound `C#Cc1cccc2cc(O)cc(-c3cc4c5c(nc(OCC6(CN7CCOCC7)CC6)nc5c3F)N3C[C@H]5CC[C@H](N5)[C@H]3CO4)c12` [Compound 5] returned an IC50 of 1.16 nM. Compared with the last compound, the IC50 is about 28-fold lower.

With `C#Cc1cccc2cc(O)cc(-c3cc4c5c(nc(OCC6(CN7CCOCC7)CC6)nc5c3F)N3[C@@H]5CN[C@@H](C5)[C@@H]3CO4)c12` [Compound 15], the IC50 was found to be 11 nM.

On to `C#Cc1cccc2cc(O)cc(-c3cc4c5c(nc(OCC6(CN7CCOCC7)CC6)nc5c3F)N3[C@H]5CN[C@H](C5)[C@@H]3CO4)c12` [Compound 16], for which the IC50 amounted to 86.1 nM.

A further experiment has as its target GppNp-loaded HIS-KRAS(G12D, aa 1-169) / cRAF RBD (Homo sapiens (Human), UniProt P01116, G12D). The experiment can be described thus: GTP-KRAS and cRAF interaction assay. The experiment is classed as biochemical. The note with it: HTRF; 2.0 nM GppNp-loaded HIS-KRAS(G12D), 35 nM cRAF RBD, 100 μM GTP, 2 hours at 25° C. The procedure:
GppNp-loaded HIS-KRAS(G12D, aa 1-169) was pre-incubated with a compound in the presence of 200 μM GTP in a 384-well plate (Greiner) for 15 min, then cRAF RBD(GST tag, aa 50-132, CreativeBioMart), MAb Anti GST-d2 (Cisbio) and MAb Anti 6HIS-Tb cryptate Gold (Cisbio) were added to the assay wells (Final concentration: 2.0 nM GppNp-loaded HIS-KRAS(G12D), 100 μM GTP, 35 nM cRAF RBD, 1 μg/mL MAb Anti GST-d2, 52.5 ng/mL MAb Anti 6HIS-Tb cryptate Gold) and incubated for 2 hours at 25° C. Wells containing same percent of DMSO served as vehicle control, and wells without KRAS served as low control. HTRF signals were read on Tecan Spark multimode microplate reader and HTRF ratios were calculated under manufacturer's instructions. The percent of activation of compounds treated wells were normalized between vehicle control and low control. Then the data were analyzed using a 4-parameter logistic model to calculate IC50 values.
In the case of `Oc1cc(-c2cc3nc(OC[C@@]45CCCN4C[C@H](F)C5)nc4c3c(c2Cl)OC[C@H]2CNCCN42)c2ccccc2c1` [Compound 3], the midpoint of inhibition, the IC50, lay at 11600 nM. In other words, the double-digit micromolar range.

`CN(C)CC1(COc2nc3c4c(c(Cl)c(-c5cc(O)cc6ccccc56)cc4n2)OC[C@H]2CNCCN32)CC1` [Compound 2] registered an IC50 of 23300 nM.

As to `C#Cc1c(F)ccc2cc(O)cc(-c3cc4c5c(nc(OC[C@@]67CCCN6C[C@H](F)C7)nc5c3F)N3C[C@H]5CC[C@H](N5)[C@H]3CO4)c12` [Compound 10], the midpoint of inhibition, the IC50, lay at 5.4 nM. This IC50 is about 4300-fold lower than that of the compound before.

In turn, `C#Cc1c(F)ccc2cc(O)cc(-c3cc4c5c(nc(OCC6(CN7CCOCC7)CC6)nc5c3F)N3C[C@H]5CC[C@H](N5)[C@H]3CO4)c12` [Compound 14] returned a half-maximal inhibitory concentration (IC50) of 9.2 nM.

`C#Cc1c(F)ccc2cc(O)cc(-c3nc4c5c(nc(OCC6(CN7CCOCC7)CC6)nc5c3F)N3C[C@H]5CC[C@H](N5)[C@H]3CO4)c12` [Compound 7] had a half-inhibitory concentration (IC50) of 9.8 nM.

`C#Cc1c(F)ccc2cc(O)cc(-c3nc4c5c(nc(OC[C@@]67CCCN6C[C@H](F)C7)nc5c3F)N3C[C@H]5CC[C@H](N5)[C@H]3CO4)c12` [Compound 6] registered a 50% inhibitory concentration (IC50) of 3.9 nM.

`C#Cc1c(F)ccc2cc(O)cc(-c3nc4c5c(nc(OC[C@@]67CCCN6C[C@H](F)C7)nc5c3F)N3C[C@@H]5CC[C@@H](N5)[C@H]3CO4)c12` [Compound 9] came in with an IC50 of 2240 nM.

In turn, `C#Cc1cccc2cc(O)cc(-c3cc4nc(OC[C@@]56CCCN5C[C@H](F)C6)nc5c4c(c3Cl)OC[C@@H]3[C@@H]4CC[C@H](CN53)N4)c12` [Compound 11] returned an IC50 of 184 nM.

`C#Cc1c(F)ccc2cc(O)cc(-c3c(Cl)c4c5c(nc(OC[C@@]67CCCN6C[C@H](F)C7)nc5c3F)N3C[C@H]5CC[C@H](N5)[C@H]3CO4)c12` (atropisomer, axis not shown) [Compound 12] gave an IC50 of 154 nM.

For the compound `CN(C)CC1(COc2nc3c4c(c(Cl)c(-c5cc(O)cc6ccccc56)cc4n2)OC[C@@H]2CNCCN32)CC1` [Compound 1], the midpoint of inhibition, the IC50, lay at 31400 nM.

`C#Cc1cccc2cc(O)cc(-c3cc4c5c(nc(OCC6(CN7CCOCC7)CC6)nc5c3F)N3C[C@H]5CC[C@H](N5)[C@@H]3CO4)c12` [Compound 4] came in with an IC50 of 378 nM.

With `C#Cc1c(F)ccc2cc(O)cc(-c3c(Cl)c4c5c(nc(OC[C@@]67CCCN6C[C@H](F)C7)nc5c3F)N3C[C@H]5CC[C@H](N5)[C@H]3CO4)c12` (atropisomer, axis not shown) [Compound 13], the IC50 turned out to be 4.8 nM.

In turn, `C#Cc1c(F)ccc2cc(O)cc(-c3nc4c5c(nc(OC[C@@]67CCCN6C[C@H](F)C7)nc5c3F)N3C[C@@H]5CC[C@@H](N5)[C@@H]3CO4)c12` [Compound 8] returned an IC50 of 280 nM.

Compound `C#Cc1cccc2cc(O)cc(-c3cc4c5c(nc(OCC6(CN7CCOCC7)CC6)nc5c3F)N3C[C@H]5CC[C@H](N5)[C@H]3CO4)c12` [Compound 5] returned a concentration for half-maximal inhibition (IC50) of 20.5 nM.

`C#Cc1cccc2cc(O)cc(-c3cc4c5c(nc(OCC6(CN7CCOCC7)CC6)nc5c3F)N3[C@@H]5CN[C@@H](C5)[C@@H]3CO4)c12` [Compound 15]: the 50% inhibitory concentration (IC50) came out at 251 nM. This IC50 is about 12-fold higher than that of the compound before.

Compound `C#Cc1cccc2cc(O)cc(-c3cc4c5c(nc(OCC6(CN7CCOCC7)CC6)nc5c3F)N3[C@H]5CN[C@H](C5)[C@@H]3CO4)c12` [Compound 16] displayed a 50% inhibitory concentration (IC50) of 660 nM.
